What all share (format): in vivo
The test system of experiment [1] is cattle tick larvae (Rhipicephalus microplus). Nature of the experiment: Rhipicephalus (Boophilus) microplus in-vitro contact test, larval cattle tick (strain Parkhurst, resistant against synthetic pyrethroids). As to conditions: 1 μg/cm^2 (=100 g/ha), after 48 hours, read-out: efficacy (larvae dead or moribund). The method, boiled down:
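After drying, 20-50 larvae were held per tube at 27° C., 85% relative humidity for 48 h, and efficacy was scored as % dead or moribund.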

The subject of experiment [2] is larvae of the banded cucumber beetle (Diabrotica balteata). Nature of the experiment: Diabrotica balteata spray test. As to conditions: 168 h, 100 g/ha (=32 μg/well), wheat seeds, after 7 days, read-out: efficacy (seedling growth). The method, boiled down: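 Germinated wheat seedlings (5 per well, on agar) sprayed with compound in acetone/dimethylformamide diluted in water with 1000 ppm emulsifier, then infested with 10-20 Diabrotica balteata larvae. Efficacy (%) scored after 7 days: 100% = seedling growth as untreated, uninfested control; 0% = no seedlings grown.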

Experiment [3] has as its system green peach aphid (Myzus persicae). Put plainly: Myzus persicae spray test. Conditions: foliar, 120 h, 100 g/ha, Chinese cabbage leaf disks, after 5 days. How it is done:
Myzus persicae—Spray Test • Solvent: 78.0 parts by weight acetone • 1.5 parts by weight dimethylformamide • Emulsifier: alkylarylpolyglycol ether
(§1) To produce a suitable preparation of active compound, 1 part by weight of active compound is mixed with the stated amount of solvents and is diluted with water, containing an emulsifier concentration of 1000 ppm, to the desired concentration. Further test concentrations are prepared by dilution with emulsifier containing water.
Chinese cabbage (Brassica pekinensis) leaf disks infected with all instars of the green peach aphid (Myzus persicae), are sprayed with a preparation of the active ingredient of the desired concentration.
After 5 days mortality in % is determined. 100% means all aphids have been killed and 0% means none of the aphids have been killed.

In experiment [4] the test system is larvae of the southern green stink bug (Nezara viridula). Put plainly: Nezara viridula spray test. As to conditions: 96 h, barley plants, after 4 days. Put shortly: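 Mortality (%) of stink bug larvae on treated barley (Hordeum vulgare) was scored 4 days after infestation. Test solutions came from an acetone/DMF concentrate diluted with water containing 1000 ppm emulsifier and were sprayed onto plants before larvae were added.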

Experiment [5] deals with fall armyworm larvae (Spodoptera frugiperda). Put plainly: Spodoptera frugiperda spray test. As to conditions: 168 h, maize leaf sections, after 7 days. Put shortly:
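Percent kill of Spodoptera frugiperda caterpillars read at day 7. Larvae placed on dried Zea mays leaf pieces previously sprayed with test preparation, made from acetone plus DMF and diluted with emulsifier-containing water (1000 ppm).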

Experiment [6] concerns adult mosquitoes Aedes aegypti strain MONHEIM. Nature of the experiment: Aedes aegypti test (AEDSAE surface treatment & contact assay). As to conditions: 24 hours after contact, read-out: efficacy (mortality); for mortality at 4 mg/m2: surface concentration 4 mg/m^2, 30 minutes exposure; for mortality at 20 mg/m2: surface concentration 20 mg/m^2, 30 minutes exposure. Put shortly: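 Test compound dissolved in acetone (2 mg/ml) with 2000 ppm rapeseed oil methyl ester, applied to glazed tile and dried. Adult Aedes aegypti MONHEIM placed on surface for 30 min exposure; % mortality scored 24 h after contact.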

Experiment [7] has as its system adult mosquitoes Culex quinquefasciatus strain P00. Put plainly: Culex quinquefasciatus test (CULXFA surface treatment & contact assay). Conditions: surface concentration 20 mg/m^2, 30 minutes exposure, 24 hours after contact, read-out: efficacy (mortality). The method, boiled down: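 Compound dissolved in acetone (2 mg/ml) with 2000 ppm RME and applied to glazed tile; after acetone evaporation, adults exposed to dried surface for 30 min. Percent mortality scored 24 h after contact.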

Experiment [8] has as its system adult flies Musca domestica strain WHO-N. Put plainly: Musca domestica test (MUSCDO surface treatment & contact assay). Conditions: 24 hours after contact, read-out: efficacy (mortality); for mortality at 4 mg/m2: surface concentration 4 mg/m^2, 30 minutes exposure; for mortality at 20 mg/m2: surface concentration 20 mg/m^2, 30 minutes exposure. Put shortly: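 Compound dissolved in acetone (2 mg/ml) with 2000 ppm rapeseed oil methyl ester and dried onto a glazed tile. Adult flies exposed to the treated surface for 30 min. Percent mortality scored 24 h after contact.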

The test system of experiment [9] is adult Blattella germanica strain PAULINIA
Put plainly: whole plant or invertebrate. As to conditions: read-out: efficacy (mortality). Here is the method:
Blattella germanica Test (BLTTGE Surface Treatment & Contact Assay) • Solvent: Aceton+2000 ppm rapeseed oil methyl ester (RME)
In order to produce a sufficient, active ingredient containing solution it is necessary to solve the test compound in the solvent-mix (acetone at 2 mg/ml/RME 2000 ppm). This solution is pipetted onto a glazed tile and after evaporation of the acetone, adult animals of the species Blattella germanica strain PAULINIA are placed onto the dried surface. The exposure time is 30 minutes.
Mortality in percent (%) is determined 24 hours after contact of the insects to the treated surface. 100% mortality means that all tested insects are dead, whereas 0% means that no insect died.

Experiment [10] concerns adult cat fleas (Ctenocephalides felis). Put plainly: Ctenocephalides felis in-vitro contact test, adult cat flea. As to conditions: 1 μg/cm^2 (=100 g/ha), after 48 hours. Here is the method: Ctenocephalides felis—In-Vitro Contact Tests Adult Cat Flea
(§2) 9 mg compound is solved in 1 mL acetone and diluted with acetone to the desired concentration. 250 μL of the test solution is filled in 25 mL glass test tubes and homogeneously distributed on the inner walls by rotation and tilting on a shaking device (2 h at 30 rpm). With a compound concentration of 900 ppm, an inner surface of 44.7 cm^2 and a homogeneous distribution, a dose of 5 μg/cm^2 is achieved.
After the solvent has evaporated, each test tube is filled with 5-10 adult cat fleas (Ctenocephalides felis), closed with a perforated lid and incubated in a lying position at room temperature and relative humidity.
After 48 hours efficacy is determined. The fleas are patted on the ground of the tubes and are incubated on a heating plate at 45-50° C. for at most 5 minutes. Immotile or uncoordinated moving fleas, which are not able to escape the heat by climbing upwards, are marked as dead or moribund.
An efficacy of 100% means all fleas are dead or moribund; 0% means no fleas are dead or moribund.

Experiment [11] concerns adult brown dog ticks (Rhipicephalus sanguineus). Nature of the experiment: Rhipicephalus sanguineus in-vitro contact test with adult brown dog ticks. As to conditions: 1 μg/cm^2 (=100 g/ha), after 48 hours. How it is done: Rhipicephalus sanguineus—In-Vitro Contact Tests with Adult Brown Dog Ticks
as §2
After the solvent has evaporated, each test tube is filled with 5-10 adult brown dog ticks (Rhipicephalus sanguineus), closed with a perforated lid and incubated in a lying position at room temperature and relative humidity. After 48 hours efficacy is determined. The ticks are patted on the ground of the tubes and are incubated on a heating plate at 45-50° C. for at most 5 minutes. Immotile or uncoordinated moving ticks, which are not able to escape the heat by climbing upwards, are marked as dead or moribund.
An efficacy of 100% means all ticks are dead or moribund; 0% means no ticks are dead or moribund.

The test system of experiment [12] is brown planthopper (Nilaparvata lugens). Put plainly: Nilaparvata lugens spray test. As to conditions: 96 h, rice plants, after 4 days. Here is the method: Nilaparvata lugens—Spray Test • Solvent: 78.0 parts by weight of acetone • 1.5 parts by weight of dimethylformamide • Emulsifier: alkylarylpolyglycol ether
as §1
Rice plants (Oryza sativa) are sprayed with a preparation of the active ingredient of the desired concentration and the plants are infested with the brown planthopper (Nilaparvata lugens).
After 4 days mortality in % is determined. 100% means all planthoppers have been killed and 0% means none of the planthoppers have been killed.

Consider 2 compounds from patent US20240254121A1, “ALKYLAMIDE SUBSTITUTED, ANNULATED IMIDAZOLES AND USE THEREOF AS INSECTICIDES” (Bayer Aktiengesellschaft, priority 2021, published 2024).

What is called mortality is the percentage killed. For the compound `CC(NC(=O)c1cc(OC(F)(F)F)cc(OC(F)(F)F)c1)c1nc2cccnc2n1-c1ncccn1` (centres unmarked) [Example I-31], the pest or weed control at 1 µg/cm2, 100 g/ha in experiment [1] worked out at 100%. Further, the pest or weed control at 32 µg/disc, 100 g/ha in experiment [2] worked out at 100%. For the same compound, the mortality at 100 g/ha was determined as 90% in experiment [3] and 100% in experiment [5]. The mortality at 500 g/ha in experiment [4] worked out at 100%. The mortality at 4 mg/m2 in experiment [6] and in experiment [8] was 80 to 100% in each case. For the same compound, the mortality at 20 mg/m2 in [6], in experiment [7], in experiment [8] and in experiment [9] was 80 to 100% throughout.

With `C[C@H](NC(=O)c1cc(C(F)(F)F)cc(C(F)(F)F)c1)c1nc2cccnc2n1-c1ccc(C#N)cn1` [Example I-15], the pest or weed control at 1 µg/cm2, 100 g/ha in experiment [1] was determined as 100%. For the same compound, the “efficacy (fleas dead or moribund)” value in [10] worked out at 80%. In experiment [11], the “efficacy (ticks dead or moribund)” value was found to be 80%. Also, in experiment [2], the pest or weed control at 32 µg/disc, 100 g/ha was 100%. In addition, the mortality at 100 g/ha in experiment [3] is 90%; in experiment [5], 100%. This compound registered a mortality at 500 g/ha in experiment [12] of 90%. Moreover, the mortality at 4 mg/m2 in [6] and in experiment [8] was 80 to 100% in each case. Also, the mortality at 20 mg/m2 in [6], in experiment [7] and in experiment [8] was 80 to 100% throughout.
